Test [1] addresses Phosphatidylethanolamine-binding protein 1 (Homo sapiens, UniProt P30086).
Test [2] has as its target T1, TGF-beta receptor type-1 (Homo sapiens, UniProt P36897).
T1 sequence (P36897 whole entry): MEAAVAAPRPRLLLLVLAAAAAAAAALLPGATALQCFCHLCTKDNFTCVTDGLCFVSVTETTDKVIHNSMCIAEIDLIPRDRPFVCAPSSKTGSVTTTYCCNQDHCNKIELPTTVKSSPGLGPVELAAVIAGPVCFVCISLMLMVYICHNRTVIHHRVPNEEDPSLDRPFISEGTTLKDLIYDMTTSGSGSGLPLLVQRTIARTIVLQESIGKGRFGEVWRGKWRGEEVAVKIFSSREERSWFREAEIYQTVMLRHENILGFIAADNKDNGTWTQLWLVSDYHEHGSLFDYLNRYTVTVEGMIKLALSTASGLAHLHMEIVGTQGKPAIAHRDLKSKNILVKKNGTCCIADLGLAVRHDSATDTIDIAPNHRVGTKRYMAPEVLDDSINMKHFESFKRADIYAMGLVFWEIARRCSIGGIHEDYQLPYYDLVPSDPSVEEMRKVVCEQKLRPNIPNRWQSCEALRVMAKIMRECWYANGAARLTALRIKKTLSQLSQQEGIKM

Test [3] has as its target T2, MAP kinase-activated protein kinase 5 (Homo sapiens, UniProt Q8IW41).
T2 sequence (Q8IW41 whole entry): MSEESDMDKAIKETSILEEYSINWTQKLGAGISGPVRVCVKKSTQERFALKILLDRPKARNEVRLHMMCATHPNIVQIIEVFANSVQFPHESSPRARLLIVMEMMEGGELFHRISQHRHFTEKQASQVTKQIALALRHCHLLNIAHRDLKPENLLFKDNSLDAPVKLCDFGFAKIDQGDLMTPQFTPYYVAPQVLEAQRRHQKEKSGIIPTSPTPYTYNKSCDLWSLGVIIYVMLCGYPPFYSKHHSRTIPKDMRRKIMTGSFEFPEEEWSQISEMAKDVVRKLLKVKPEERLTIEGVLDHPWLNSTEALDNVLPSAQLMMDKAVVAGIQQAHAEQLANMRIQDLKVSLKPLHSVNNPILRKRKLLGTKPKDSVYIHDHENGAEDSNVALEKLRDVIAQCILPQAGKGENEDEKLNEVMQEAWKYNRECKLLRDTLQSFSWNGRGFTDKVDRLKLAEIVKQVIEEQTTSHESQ

Test [4] deals with T3, Eukaryotic translation initiation factor 5B (Homo sapiens, UniProt O60841).
T3 sequence (O60841 whole entry): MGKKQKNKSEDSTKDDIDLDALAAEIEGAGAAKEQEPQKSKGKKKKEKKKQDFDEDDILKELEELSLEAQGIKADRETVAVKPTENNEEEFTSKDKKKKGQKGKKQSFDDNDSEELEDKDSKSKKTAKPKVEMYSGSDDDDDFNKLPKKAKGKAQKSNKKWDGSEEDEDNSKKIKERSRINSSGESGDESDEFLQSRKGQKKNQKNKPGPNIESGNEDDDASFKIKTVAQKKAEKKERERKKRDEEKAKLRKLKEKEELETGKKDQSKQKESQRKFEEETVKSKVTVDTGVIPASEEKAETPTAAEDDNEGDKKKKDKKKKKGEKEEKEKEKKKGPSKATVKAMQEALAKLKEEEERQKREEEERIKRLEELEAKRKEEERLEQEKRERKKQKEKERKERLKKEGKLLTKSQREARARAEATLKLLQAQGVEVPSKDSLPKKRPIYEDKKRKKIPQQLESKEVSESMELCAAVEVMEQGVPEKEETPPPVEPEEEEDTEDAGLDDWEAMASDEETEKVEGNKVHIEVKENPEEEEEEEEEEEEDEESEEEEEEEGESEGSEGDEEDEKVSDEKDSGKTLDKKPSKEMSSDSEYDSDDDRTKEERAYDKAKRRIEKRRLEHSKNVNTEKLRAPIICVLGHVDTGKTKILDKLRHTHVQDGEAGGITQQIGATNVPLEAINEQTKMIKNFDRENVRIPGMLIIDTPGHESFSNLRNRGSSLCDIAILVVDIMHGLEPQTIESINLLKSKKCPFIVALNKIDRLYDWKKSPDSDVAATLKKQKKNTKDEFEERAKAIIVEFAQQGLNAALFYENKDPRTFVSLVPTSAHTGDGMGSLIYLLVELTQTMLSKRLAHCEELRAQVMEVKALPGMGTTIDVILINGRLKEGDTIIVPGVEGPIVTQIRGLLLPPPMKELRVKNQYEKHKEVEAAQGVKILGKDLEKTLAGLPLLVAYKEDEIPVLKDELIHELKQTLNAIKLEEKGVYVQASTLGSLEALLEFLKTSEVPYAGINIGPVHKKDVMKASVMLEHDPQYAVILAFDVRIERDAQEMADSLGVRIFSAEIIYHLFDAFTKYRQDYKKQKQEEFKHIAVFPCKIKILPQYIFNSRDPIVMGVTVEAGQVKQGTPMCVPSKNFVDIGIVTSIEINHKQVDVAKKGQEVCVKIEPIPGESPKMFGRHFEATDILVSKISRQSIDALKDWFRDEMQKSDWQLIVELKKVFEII

Test [5] has as its target T4, Phosphatidylinositol 5-phosphate 4-kinase type-2 gamma (Homo sapiens, UniProt Q8TBX8).
T4 sequence (Q8TBX8 whole entry): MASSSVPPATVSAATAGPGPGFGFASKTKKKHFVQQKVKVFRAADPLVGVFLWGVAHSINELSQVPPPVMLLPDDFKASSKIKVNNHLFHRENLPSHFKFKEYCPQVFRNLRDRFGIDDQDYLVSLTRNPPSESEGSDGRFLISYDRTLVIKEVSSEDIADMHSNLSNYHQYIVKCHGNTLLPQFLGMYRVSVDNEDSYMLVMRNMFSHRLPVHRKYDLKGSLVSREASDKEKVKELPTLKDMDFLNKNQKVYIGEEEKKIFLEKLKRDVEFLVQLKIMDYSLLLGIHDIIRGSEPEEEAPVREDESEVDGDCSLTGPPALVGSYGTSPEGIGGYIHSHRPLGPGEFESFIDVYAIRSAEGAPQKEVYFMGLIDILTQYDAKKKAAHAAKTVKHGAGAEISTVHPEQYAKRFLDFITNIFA

Test [6] has as its target Proto-oncogene tyrosine-protein kinase Src (Homo sapiens, UniProt P12931).
Test [7] concerns the target T5, Rab-like protein 3 (Homo sapiens, UniProt Q5HYI8).
T5 sequence (Q5HYI8 whole entry): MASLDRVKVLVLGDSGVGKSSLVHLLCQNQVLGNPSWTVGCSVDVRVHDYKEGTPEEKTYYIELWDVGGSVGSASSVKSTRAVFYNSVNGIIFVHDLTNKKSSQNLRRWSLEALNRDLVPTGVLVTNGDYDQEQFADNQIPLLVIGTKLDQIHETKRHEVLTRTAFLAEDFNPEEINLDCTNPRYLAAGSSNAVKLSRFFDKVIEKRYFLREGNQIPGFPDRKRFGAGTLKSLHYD

Active and inactive are the calls of the source.
Also: in the data inactive means no Kd found up to 30 µM.

Proto-oncogene tyrosine-protein kinase Src, sequence (P12931 2-536 limits assumed): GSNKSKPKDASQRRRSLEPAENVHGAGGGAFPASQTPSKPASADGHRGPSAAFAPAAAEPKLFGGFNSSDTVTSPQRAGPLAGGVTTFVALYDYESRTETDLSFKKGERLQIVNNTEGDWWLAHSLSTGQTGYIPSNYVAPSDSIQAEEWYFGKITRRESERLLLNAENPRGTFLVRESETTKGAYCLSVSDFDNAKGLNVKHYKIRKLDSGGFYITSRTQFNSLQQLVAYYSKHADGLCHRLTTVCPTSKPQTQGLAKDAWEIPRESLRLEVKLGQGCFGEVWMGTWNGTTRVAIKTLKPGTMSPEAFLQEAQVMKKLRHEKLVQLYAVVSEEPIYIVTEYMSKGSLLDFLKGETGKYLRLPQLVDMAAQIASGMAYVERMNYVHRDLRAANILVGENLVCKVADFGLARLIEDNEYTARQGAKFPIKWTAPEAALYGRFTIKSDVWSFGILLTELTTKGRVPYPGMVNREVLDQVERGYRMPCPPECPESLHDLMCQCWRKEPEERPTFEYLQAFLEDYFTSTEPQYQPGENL
Phosphatidylethanolamine-binding protein 1, sequence (P30086 whole entry): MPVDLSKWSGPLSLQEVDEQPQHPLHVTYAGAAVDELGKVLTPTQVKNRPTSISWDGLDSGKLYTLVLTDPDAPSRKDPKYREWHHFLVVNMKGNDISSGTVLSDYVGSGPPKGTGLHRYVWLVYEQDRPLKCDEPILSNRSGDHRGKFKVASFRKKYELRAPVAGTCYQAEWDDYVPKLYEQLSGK

Take `CC(=O)c1cnc2ccc(-c3cc(Cl)c(O)c(Cl)c3)nc2c1N[C@H]1CC[C@H](CN(C)C)CC1`: the Kd in test [1] was > 30 µM (inactive); in test [2], 0.149 µM (active); in test [3] it was 0.272 µM (active); in test [4] it was > 30 µM (inactive); in test [5] it was 0.003 µM; in test [6], > 30 µM (inactive).
As for `C=CC(=O)N1CCC[C@H](n2c(=O)n(-c3ccc(Oc4ccccc4)cc3)c3c(N)ncnc32)C1`, the Kd was > 30 µM (inactive) in test [1]; > 30 µM (inactive) in test [2]; > 30 µM (inactive) in test [3]; > 30 µM (inactive) in test [4]; > 30 µM (inactive) in test [5]; 0.004 µM in test [6]. The Kd in test [7] was > 30 µM (inactive).
On to `Cc1nc2cc(-c3nn(C(C)C)c4ncnc(N)c34)ccc2o1`, for which the Kd in test [1] was > 30 µM (inactive); in test [2], 2.47 µM (active); in test [3] it was > 30 µM (inactive); in test [4], > 30 µM (inactive); in test [5] it was > 30 µM (inactive); in test [6] it was > 30 µM (inactive). In test [7], the Kd is > 30 µM (inactive).
Turning to `Cc1csc(-c2nnc(Nc3ccc(Oc4ncccc4-c4ccnc(N)n4)cc3)c3ccccc23)c1` [AMG-900], the Kd in test [1], in test [2], in test [3], in test [4], in test [6] and in test [7] was > 30 µM (inactive) each time.
Take `Cn1cnc2c(F)c(Nc3ccc(Br)cc3F)c(C(=O)NOCCO)cc21` [BINIMETINIB]: the Kd in test [1], in test [2], in test [3], in test [4], in test [5] and in test [6] was > 30 µM (inactive) in each case. Further, the Kd in test [7] was > 30 µM (inactive).
In the case of `COc1cc2ncnc(Oc3cccc(NC(=O)Nc4cc(C(C)(C)C(F)(F)F)on4)c3)c2cc1OC` [CEP-32496], the Kd in test [1], in test [2], in test [3], in test [4], in test [5] and in test [6] was > 30 µM (inactive) each time. Besides, in test [7], the Kd was > 30 µM (inactive).
`COc1c(OCCCN2CCOCC2)ccc2c1N=C(NC(=O)c1cnc(N)nc1)N1CCN=C21` [COPANLISIB]: the Kd in test [1], in test [2], in test [3], in test [4], in test [5] and in test [6] was > 30 µM (inactive) each time. Further, the Kd in test [7] was > 30 µM (inactive).
`COCC(=O)NC/C=C/c1ccc2ncnc(Nc3ccc(Oc4ccc(C)nc4)c(C)c3)c2c1` [CP-724714]: the Kd in test [1], in test [2], in test [3], in test [4], in test [5] and in test [6] was > 30 µM (inactive) throughout. The Kd in test [7] was > 30 µM (inactive).
On to `Cc1nc2cc(-n3ncc(C(=O)c4cc5ccccc5[nH]4)c3N)ccc2[nH]1` [FGFR INHIBITOR DEBIO 1347], for which the Kd in test [1], in test [2], in test [3], in test [4], in test [5] and in test [6] was > 30 µM (inactive) throughout. Further, the Kd in test [7] is > 30 µM (inactive).
Take `O=C(Nc1nc2cccc(-c3ccc(CN4CCS(=O)(=O)CC4)cc3)n2n1)C1CC1` [FILGOTINIB]: the Kd in test [1], in test [2], in test [3], in test [4], in test [5] and in test [6] was > 30 µM (inactive) in each case. Further, the Kd in test [7] is > 30 µM (inactive).
As for `CNC(=O)c1cccc2cc(Oc3ccnc4cc(OCC5(N)CC5)c(OC)cc34)ccc12` [LUCITANIB], the Kd in test [1], in test [2], in test [3], in test [4], in test [5] and in test [6] was > 30 µM (inactive) throughout.
Turning to `CO[C@H]1C[C@@H]2CC[C@@H](C)[C@@](O)(O2)C(=O)C(=O)N2CCCC[C@H]2C(=O)O[C@H]([C@H](C)C[C@@H]2CC[C@@H](O)[C@H](OC)C2)CC(=O)[C@H](C)/C=C(\C)[C@@H](O)[C@@H](OC)C(=O)[C@H](C)C[C@H](C)/C=C/C=C/C=C/1C` [SIROLIMUS], the Kd in test [1], in test [2], in test [3], in test [4], in test [5] and in test [6] was > 30 µM (inactive) in each case.
Regarding `CC(C)c1cc(CNc2nc(Nc3cc(C4CC4)[nH]n3)cc(N3CCN(C)CC3)n2)on1` [XL-228], the Kd is > 30 µM (inactive) in test [1]; > 30 µM (inactive) in test [3]; > 30 µM (inactive) in test [4]; > 30 µM (inactive) in test [5]; 0.459 µM (active) in test [6]; > 30 µM (inactive) in test [7].

As usually defined, the Kd is the equilibrium constant for the complex coming apart.

The record behind these values is ChEMBL document CHEMBL3991601, “The target landscape of clinical kinase drugs” (Science, 2017).
